PubChem BioAssay (NCI)
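The compound was tested at five concentrations on cells cultured in 96-well plates, with a 48-hour exposure period. The concentration for 50% growth inhibition is given as GI50. TGI denotes the concentration required for complete inhibition of growth.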

Key:
Assay in all cases: inhibition of tumour cell growth, NCI panel, 48 h
[1] = tested on: A549 NSCLC
[2] = tested on: ACHN renal
[3] = tested on: HL-60(TB) leukemia
[4] = tested on: HOP-62 NSCLC
[5] = tested on: NCI-H460 lung
[6] = tested on: SK-MEL-2 melanoma
[7] = tested on: SK-MEL-5 melanoma
[8] = tested on: SW-620 colon
[9] = tested on: TK-10 renal
[10] = tested on: UACC-257 melanoma
[11] = tested on: NCI-H226 lung

Row | Compound | TGI [1] | TGI [2] | TGI [3] | TGI [4] | TGI [5] | TGI [6] | TGI [7] | TGI [8] | TGI [9] | TGI [10] | TGI [11] | GI50 [2] | GI50 [3] | GI50 [5] | GI50 [6] | GI50 [7] | GI50 [8] | GI50 [9] | GI50 [10]
1 | Cc1cc(C)n(-c2nsc3ccccc23)n1 | > 100 µM | > 100 µM | > 100 µM | > 100 µM | > 100 µM | > 100 µM | > 100 µM | > 100 µM | > 100 µM | > 100 µM |  |  |  |  |  |  |  |  | 
2 | CSc1nc(NC2OCC(O)C(O)C2O)c(N)c(=O)[nH]1 (configuration not stated) | > 100 µM |  | > 100 µM | > 100 µM | > 100 µM | > 100 µM | > 100 µM | > 100 µM |  | > 100 µM | > 100 µM |  |  |  |  |  |  |  | 
3 | Brc1ccc(C2CC(c3cccc4ccccc34)=Nc3ccccc3S2)cc1 (configuration not stated) | > 100 µM | > 100 µM | > 100 µM | > 100 µM | > 100 µM | > 100 µM | > 100 µM | 34 µM | > 100 µM | > 100 µM | > 100 µM |  |  |  |  |  |  |  | 
4 | C/C(N=NS(=O)(=O)c1ccccc1)=C1\C=CC=CN1O | > 100 µM | > 100 µM | > 100 µM | > 100 µM | > 100 µM |  | > 100 µM | > 100 µM | > 100 µM | > 100 µM |  |  |  |  |  |  |  |  | 
5 | CC(C)(C)[Si](C)(C)OCC1OC(n2cnc3c(N)ncnc32)CC1O (configuration not stated) |  |  | > 100 µM | > 100 µM | > 100 µM | > 100 µM | > 100 µM | > 100 µM | > 100 µM | > 100 µM | > 100 µM |  |  |  |  |  |  |  | 
6 | CC1CCC2(O)C3(C)CC4(O)OC2(C1O)C1(O)C3(O)C(OC(=O)c2ccc[nH]2)C(O)(C(C)C)C41C (configuration not stated) | > 100 µM | > 100 µM | > 100 µM | > 100 µM | > 100 µM | > 100 µM | > 100 µM | > 100 µM | > 100 µM | > 100 µM | > 100 µM |  |  |  |  |  |  |  | 
7 | c1coc(CNc2ncnc3[nH]ncc23)c1 | > 100 µM | > 100 µM | > 100 µM | > 100 µM | > 100 µM | > 100 µM | > 100 µM | > 100 µM | > 100 µM | > 100 µM | > 100 µM |  |  |  |  |  |  |  | 
8 | CC(=O)c1ccc2c(c1)c1c(C)c3c[n+](C)ccc3c(C)c1n2C | > 100 µM |  | > 68.6 µM | 38.2 µM | 15.1 µM | 22.6 µM | > 47.8 µM | > 85.4 µM |  | 36.2 µM | 11.8 µM |  |  |  |  |  |  |  | 
9 | NCCCOc1ccc([N+](=O)[O-])cc1Cl | > 100 µM | > 100 µM | > 100 µM | > 100 µM | > 100 µM | > 100 µM | > 100 µM | > 100 µM | > 100 µM | > 100 µM | > 100 µM |  |  |  |  |  |  |  | 
10 | Fc1ccc(C2CC(c3cccc(Nc4ccncc4)c3)=NN2c2ccc(Cl)cc2)cc1 (configuration not stated) |  | 2.96 µM | 4.22 µM |  | 3.35 µM | 3.73 µM | 3.16 µM | 3.09 µM | 3.37 µM | 4.15 µM |  | 1.61 µM | 1.95 µM | 1.79 µM | 1.89 µM | 1.76 µM | 1.64 µM | 1.74 µM | 2 µM
11 | Cc1cc2c(cc1C)OC(=O)CC2 | > 100 µM | > 100 µM | > 100 µM | > 100 µM | > 100 µM | > 100 µM | > 100 µM | > 100 µM | > 100 µM | > 100 µM | > 100 µM |  |  |  |  |  |  |  | 
12 | OCCOCCN1CCN(CCCN2c3ccccc3Sc3ccc(C(F)(F)F)cc32)CC1 | 27.1 µM | 31.8 µM |  | 33.2 µM | 22.7 µM | 34.7 µM | 13.8 µM | 29.6 µM | 24.1 µM | 18.3 µM | 37.2 µM |  |  |  |  |  |  |  | 
13 | N#CN=[N+]([O-])c1ccc(C(=O)O)cc1 | > 100 µM | 32.7 µM |  | 30.7 µM | > 100 µM | 33.6 µM |  | 36.6 µM | 31.4 µM | 32.7 µM | 40.9 µM |  |  |  |  |  |  |  | 
14 | CC(=O)OCC1=C(C(=O)O)N2C(=O)C(NC(=O)CSc3ccncc3)C2SC1 (configuration not stated) | > 100 µM | > 100 µM | > 100 µM | > 100 µM | > 100 µM | > 100 µM | > 100 µM | > 100 µM |  | > 100 µM | > 100 µM |  |  |  |  |  |  |  | 
15 | CCN(CC)CCNc1ccc2nnn3c4ccc(C)cc4c(=O)c1c23 | 19.3 µM | 21.3 µM | 16.8 µM | 28.9 µM | 13.9 µM | 27.1 µM | 22.5 µM | 17.2 µM | 28.8 µM | 26.5 µM | 23.9 µM |  |  |  |  |  |  |  | 
16 | O=C1Nc2ccccc2C1=Nc1cccc2ncccc12 | > 100 µM | > 100 µM |  | > 100 µM | > 100 µM | > 100 µM | > 100 µM | > 100 µM | > 100 µM | > 100 µM | > 100 µM |  |  |  |  |  |  |  | 
